In US11376307B2, “Compositions and methods of treating cancer with glycomimetic peptides” (SUSAVION BIOSCIENCES, INC., priority 2018, dated 2022):
“Also recorded” adds a separate entry of the source. Like-named read-outs stand apart in the source and are kept apart here.

How the values were obtained:
[1] = test system: ID8 ovarian cancer cell line; experiment: Murine model of ovarian cancer, sv6D and paclitaxel
Protocol: Combination study of sv6D and paclitaxel. (FIG. 8A) Female C57BL/6 mice were implanted with ID8 ovarian cancer cell line. […] Body weights of mice are shown as measured on day 58, after two weeks of alternate-day subcutaneous treatment with sv6D (0.1 nmol/g) or 3 intraperitoneal doses (days 45, 47 and 49) of 18 μg/g paclitaxel in cremophor. […] (FIG. 8B) Alternate-day injections of sv6D were initiated on day 50 with peptide alone or on day 100 to mice that were previously treated with paclitaxel between day 45 and 49. […] (FIG. 8C) Kaplan-Meier survival curves for mice treated with paclitaxel, sv6D or a combination of the two in which alternate-day subcutaneous injections of sv6D was started 50 days after paclitaxel treatment.
Cells of an ovarian epithelial cancer line, ID8 [110], were implanted into the peritoneal cavity of female C57BL/6 mice at a dose of 6×10^6 cells. All animals were weighed at least weekly throughout these studies. Accumulation of ascites was monitored by increase in body weight, and animals were euthanized when end-stage behavior was expressed. […] Kaplan-Meier survival curves were analyzed by the Mantel-Cox log-rank test.
A murine ovarian cancer cell line (ID8) was implanted into the peritoneal cavity of C57BL/6 female mice on day 0. […] Progression of the cancer was monitored by body weight of animals as an indication of ascites accumulation.

[2] = molecular target: T1, ASGPR-1 (Homo sapiens, UniProt P07306); settings: ref [49]; cited from earlier work
T1 sequence (P07306 1-291): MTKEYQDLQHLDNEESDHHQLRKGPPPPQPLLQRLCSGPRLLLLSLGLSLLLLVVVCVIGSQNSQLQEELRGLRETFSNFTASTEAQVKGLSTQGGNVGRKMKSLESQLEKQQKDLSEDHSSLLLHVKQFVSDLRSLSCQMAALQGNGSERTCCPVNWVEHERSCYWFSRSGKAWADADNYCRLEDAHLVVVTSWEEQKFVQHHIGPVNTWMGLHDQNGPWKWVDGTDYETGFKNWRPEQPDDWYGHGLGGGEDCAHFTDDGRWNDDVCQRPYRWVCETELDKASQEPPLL

[3] = molecular target: T2, human ASGPR-1 (Homo sapiens, UniProt P07306); experiment: Solid-phase binding assay with recombinant receptors
T2 construct: The extracellular domains of receptors, which were fused with the Fc domain of immunoglobulin IgG; purchased R&D Systems
T2 sequence (P07306 62-291 limits assumed): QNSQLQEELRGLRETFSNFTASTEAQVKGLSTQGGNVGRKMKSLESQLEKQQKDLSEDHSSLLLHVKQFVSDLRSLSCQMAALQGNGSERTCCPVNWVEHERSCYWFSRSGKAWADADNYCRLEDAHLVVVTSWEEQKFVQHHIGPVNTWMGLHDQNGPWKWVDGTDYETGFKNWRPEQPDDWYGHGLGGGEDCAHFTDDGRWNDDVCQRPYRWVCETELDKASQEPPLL
Protocol: (§1) Binding Assays Solid-phase binding assays were performed with streptavidin-, protein A/G-, or Nickel-coated microtiter plates (Pierce). His-tagged or Fc-fusion recombinant receptors (R&D Systems, Minneapolis, Minn.) were reconstituted in PBS. Sufficient receptors were added to wells to saturate the coating. His-tagged receptors were added to each well at a 5-fold excess over the stated capacity of the Ni coating to minimize non-specific binding of the peptide. Wells were washed three times with binding buffer (25 mM Tris HCl, pH 7.4, 150 mM NaCl, 0.05% Tween-20) to remove unbound receptor and 50 μL of 2 μM biotinylated peptide in binding buffer were added and allowed to incubate for 1 h. The wells were washed four times with binding buffer and then incubated with 50 μL of 1 μg/mL streptavidin conjugated with peroxidase (Sigma-Aldrich) for 1 h. The wells were washed five times with binding buffer and 50 μL of peroxidase substrate (1-Step™ Ultra TMB, Pierce) were added. After several minutes to allow color development, the reaction was stopped with 50 μL 1 M H3PO4 and absorbance was measured at 450 nm. Bound streptavidin was quantitated by the specific activity of peroxidase (absorbance/ng protein conjugate/min) under the conditions of the assay.
(§2) Solid-phase binding assays were performed with recombinant human receptors. Three variations of the binding assay were used in this study, all of which allowed the arms of the tetravalent peptide to have full flexibility. (i) Biotinylated peptide was bound in microtiter wells coated with streptavidin and incubated with recombinant human receptors. After extensive washing, the bound receptor was measured by peroxidase conjugated to a receptor-specific antibody. (ii) The extracellular domains of receptors, which were fused with the Fc domain of immunoglobulin IgG, were bound in wells coated with protein A/G. Biotinylated peptide was incubated with the receptors and, after extensive washing, bound peptide was measured with streptavidin conjugated with peroxidase. Or (iii), recombinant receptors with a poly-His tag were bound to Nickel-coated wells and incubated with biotinylated peptide. svL4 and sv6D contain His residues (FIGS. 1A, 1C) and can bind to the Ni coating, which was minimized by adding sufficient poly-His-tagged receptor to saturate the Ni coating.

[4] = molecular target: STING protein (Homo sapiens, UniProt Q86WV6); settings: refs [108,109]; cited from earlier work
[5] = test system: STING pathway; experiment: THP1-Dual reporter cells, secreted luciferase; format: cell-based, human; settings: medium of THP1 reporter cells
Protocol: FIGS. 12A-12B. Conjugation with cyclic dinucleotide. (FIG. 12A) The cyclic dinucleotide, c[G(2′,5′)p-2′-AHC-A(3′,5′)p] (CDN, AHC=6-aminohexylcarbamoyl), was conjugated to N-acetylated-sv6D by a carbodiimide reaction. (FIG. 12B) The conjugate delivers the activation factor at much lower concentrations. Human THP1 monocytes, engineered to detect activation of the type 1 IFN pathway (THP1-Dual™ Cells, InvivoGen, San Diego, Calif.), were incubated 20 hours with sv6D in RPMI 1640 medium containing 10% fetal bovine serum after adding the peptide CDN conjugate. The medium was recovered and then incubated with the luciferase detection reagent (Quanti-Luc™, InvivoGen) to assay for luciferase secreted in response to activation of the STING pathway. Photons were detected with a spectrofluorometer. […] The conjugate targets M2 macrophages and tumor cells that express CLEC10A and thus would produce IFN-β within the tumor microenvironment. […]
The ability of sv6D-CDN conjugates to induce activation of the STING pathway for production of type 1 interferons (IFN-α/β) was tested by incubating human THP1 monocytes that were genetically engineered as reporter cells (InvivoGen, San Diego, Calif.), with the conjugate. […] However, luciferase was detected in the medium of cells incubated with nanomolar concentrations of sv6D-CDN conjugate.

[6] = ref [90], cited from earlier work
[7] = molecular target: T3, recombinant human CLEC10A (Homo sapiens, UniProt Q8IUN9); experiment: Solid-phase binding assay with recombinant receptors; settings: biotinylated tetravalent peptide
T3 construct: The extracellular domains of receptors, which were fused with the Fc domain of immunoglobulin IgG; purchased R&D Systems
T3 sequence (Q8IUN9 61-316 limits assumed): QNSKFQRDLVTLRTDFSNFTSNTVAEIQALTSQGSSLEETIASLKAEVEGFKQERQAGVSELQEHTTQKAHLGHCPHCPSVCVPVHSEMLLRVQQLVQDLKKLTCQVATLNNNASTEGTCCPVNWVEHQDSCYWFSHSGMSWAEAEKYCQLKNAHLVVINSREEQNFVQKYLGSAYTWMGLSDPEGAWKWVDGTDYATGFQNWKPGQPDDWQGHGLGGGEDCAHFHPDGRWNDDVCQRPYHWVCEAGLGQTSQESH
Protocol: as §1, §2

[8] = test system: peritoneal immune cells; experiment: Expansion of peritoneal cells after subcutaneous injection, flow cytometry; format: in vivo, C57BL/6 mice; settings: 1 nmol/g s.c. on days 0, 2, 4; cells 24 h after each injection
Protocol: FIGS. 7A-7D. Expansion of peritoneal cells in C57BL/6 mice. Mice were injected subcutaneously at a dose of 1 nmol/g body weight of svL4, sv6D or svC1. Cells in each population recovered in a peritoneal lavage are expressed as cell counts (in thousands). Cells from three mice in each treatment group were pooled for analysis. The number of cells in each population was normalized to the average recovery of total cells from all groups. For each cell type, the left-hand, middle and right-hand set of bars represent samples from mice treated with svL4, sv6D or svC1, respectively. Mice were injected on days 0, 2 and 4, and cells were collected 24 h after each injection. Day 1, open bar; day 3, grey bar; day 5, black bar. Populations that express activation markers are indicated by an asterisk.
Flow Cytometry Healthy C57BL/6 male mice, 10 weeks old, were injected subcutaneously with peptides on alternate days. Peritoneal cells were isolated from mice 24 h after dosing by injecting ice cold PBS (containing 3% FBS) into the peritoneal cavity, gently massaging the abdomen, and then collecting the fluid, which was transferred into K2EDTA-treated tubes for evaluation of specific biomarkers. Cells from three mice in each group were pooled, counted and divided among FACS tubes (1×10^6 cells per tube). Cells were washed once in PBS containing 3% FBS, then stained with 0.25 to 1 μg of fluorescently conjugated antibody per 10^6 cells in 100 μL of buffer as recommended by the manufacturer (Table 1).
Cells were incubated with the antibodies for 30 min at 4° C. in the dark. Following staining, the cells were washed two times with PBS/3% FBS and immediately analyzed with a MACSQuant flow cytometer (Miltenyi Biotech, Inc., San Diego, Calif.). Compensation was performed using single stain tubes for each color present in the analysis as well as an unstained control sample. Collection of flow cytometric data and analysis with FlowJo software, version 10.0.6 (FlowJo, LLC, Ashland, Oreg.) were performed by Biomodels LLC (Watertown, Mass.).
To examine whether increases occurred in mature immune cells, peritoneal cells from Balb/c and C57BL/6 mice were analyzed by flow cytometry after cells were stained with the markers listed in Table 1. […] To explore this observation more extensively, svL4 or sv6D was injected into C57BL/6 mice on day 0, 2 or 4. Peritoneal cells were examined by flow cytometry 24 h after each injection. Shown in FIGS. 7A-7D are results expressed as cell counts for F4/80 CD11b CD86 (mature, active macrophages); CD11c (DCs); CD11c CD86 (activated DCs); CD4 CD69 (activated T cells); CD8 CD69 (activated cytotoxic T cells); NK1.1 CD3^+ CD69 (activated NKT cells); NK1.1 CD3^− CD69 (activated NK cells); CD19 (B cells); and CD19 CD73 CD80 CD273 (memory B cells). The numbers of these mature, activated cells continued to increase with each injection.

[9] = photodynamic, read-out: IC50 concentration for cell killing

Chain of STING protein (Q86WV6 whole entry): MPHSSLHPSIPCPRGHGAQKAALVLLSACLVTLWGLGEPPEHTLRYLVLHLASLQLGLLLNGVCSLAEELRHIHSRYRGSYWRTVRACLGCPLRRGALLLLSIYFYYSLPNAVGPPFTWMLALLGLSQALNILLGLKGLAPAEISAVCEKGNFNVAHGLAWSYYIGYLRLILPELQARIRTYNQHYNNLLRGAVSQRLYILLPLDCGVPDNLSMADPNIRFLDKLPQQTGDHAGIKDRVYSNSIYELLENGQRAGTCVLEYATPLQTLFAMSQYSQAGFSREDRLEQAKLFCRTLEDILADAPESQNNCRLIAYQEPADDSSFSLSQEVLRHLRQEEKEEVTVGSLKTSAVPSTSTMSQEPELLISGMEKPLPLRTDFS

Compound: CC(=O)O[C@H]1C(=O)[C@@]2(C)[C@H]([C@H](OC(=O)c3ccccc3)[C@]3(O)C[C@H](OC(=O)[C@H](O)[C@@H](NC(=O)c4ccccc4)c4ccccc4)C(C)=C1C3(C)C)[C@]1(OC(C)=O)CO[C@@H]1C[C@@H]2O [paclitaxel, reference compound]
- Median survival ([1]; single agent, sv6D 0.1 nmol/g, control median end-stage day 122): approximately 141 days
- Body weight (ascites accumulation) after two weeks of treatment ([1]; treatment from day 45, sv6D 0.1 nmol/g s.c. alternate days, paclitaxel 18 μg/g i.p. x3): had not significantly increased

Compound: Asialofetuin: a multi-glycosylated protein [reference compound]
- IC50 [2]: 45.6 ± 2.7 µM
- Inhibition of binding of svL4 to ASGPR-1 ([3]; asialofetuin at 75 μM, svL4 0.2 μM): 53%

Compound: c[G(2′,5′)p-2′-AHC-A(3′,5′)p] [CDN]
- Kd [4]: ~5 µM
- Concentration range needed to detect luciferase activity [5]: micromolar concentrations
- Concentration range needed to detect luciferase activity ([5]; listed as cyclic dinucleotides): micromolar range

Compound: chlorin p6
- IC50 ([6]; exposed to red light, read-out: IC50 for photosensitized cell killing): 0.03 µM
- IC50 [6, 9]: ~0.01 µM

Compound: purpurin-18
- IC50 [6, 9]: ~0.01 µM

Compound: svC1: subset of svL4: the N-terminal half of the sequence; does not bind CLEC10A, used as control (VQATQSGGGS)
- Binding to CLEC10A [7]: near the level of blank wells; also recorded: does not bind
- Binding to ASGPR-1 ([3]; biotinylated tetravalent peptide): near the level of blank wells
- Change in mature, active peritoneal immune cell populations [8]: did not increase significantly
